According to the supplement of paper PMC11061612:

What was measured:
Test in all cases: combination Emax (second highest fraction inhibited in the dose matrix, 72 h); higher = more inhibition; extreme values may be limits of the assay
[1] = tested on: KYSE-50 (Esophageal Squamous Cell Carcinoma)
Method in brief: (§1)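 Cell lines in DMEM/F12 or RPMI with 10% FBS were plated in 1536-well plates, held 24 hours at 37°C, 5% CO2, then given two-drug dose matrices for 72 hours (DMSO typically 0.2%). Viability was read by CellTiter-Glo 2.0 luminescence and scaled as inhibition from 0 (vehicle wells) to 1 (blank wells). Combination Emax is the second-highest inhibition in the matrix; Bliss excess is observed combination effect minus expected EA + EB − EA·EB, EA and EB being single-agent effects.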

[2] = tested on: LOU-NH91 (Squamous Cell Lung Carcinoma)
Method in brief: as §1

EW-13 (Ewing's Sarcoma) = tested on: EW-13 (Ewing's Sarcoma)
Method in brief: as §1

RPMI-7951 (Melanoma) = tested on: RPMI-7951 (Melanoma)
Method in brief: as §1

[3] = tested on: LC4-1 (B-Lymphoblastic Leukemia)
Method in brief: as §1

[4] = tested on: KINGS-1 (Low Grade Glioma)
Method in brief: as §1

[5] = tested on: KU-19-19 (Bladder Carcinoma)
Method in brief: as §1

[6] = tested on: NCI-N87 (Gastric Carcinoma)
Method in brief: as §1

[7] = tested on: OVISE (Ovarian Carcinoma)
Method in brief: as §1

[8] = tested on: MFE-319 (Endometrial Carcinoma)
Method in brief: as §1

[9] = tested on: EBC-1 (Squamous Cell Lung Carcinoma)
Method in brief: as §1

GOTO (Neuroblastoma) = tested on: GOTO (Neuroblastoma)
Method in brief: as §1

[10] = tested on: TGBC11TKB (Gastric Carcinoma)
Method in brief: as §1

[11] = tested on: SCC-3 (B-Cell Non-Hodgkin's Lymphoma)
Method in brief: as §1

[12] = tested on: KLE (Endometrial Carcinoma)
Method in brief: as §1

NH-12 (Neuroblastoma) = tested on: NH-12 (Neuroblastoma)
Method in brief: as §1

[13] = tested on: KP-2 (Pancreatic Carcinoma)
Method in brief: as §1

IMR-5 (Neuroblastoma) = tested on: IMR-5 (Neuroblastoma)
Method in brief: as §1

[14] = tested on: SCC-9 (Oral Cavity Carcinoma)
Method in brief: as §1

Row | SMILES | combination Emax [1] | combination Emax [2] | combination Emax (EW-13 (Ewing's Sarcoma)) | combination Emax (RPMI-7951 (Melanoma)) | combination Emax [3] | combination Emax [4] | combination Emax [5] | combination Emax [6] | combination Emax [7] | combination Emax [8] | combination Emax [9] | combination Emax (GOTO (Neuroblastoma)) | combination Emax [10] | combination Emax [11] | combination Emax [12] | combination Emax (NH-12 (Neuroblastoma)) | combination Emax [13] | combination Emax (IMR-5 (Neuroblastoma)) | combination Emax [14]
1 | CCc1c2c(nc3ccc(O)cc13)-c1cc3c(c(=O)n1C2)COC(=O)[C@]3(O)CC [SN-38] + CN(C)CCCOc1ccc(-c2ccc3ncc4c(c3c2)n(C2CCOCC2)c(=O)n4C)cn1 [AZD0156] (first compound max 0.3 µM, 7x7, partner max 1 µM) | 0.171 | 0.857 | 0.734 | 0.933 | 0.932 | 0.243 | 0.828 | 0.697 | 0.181 | 0.243 | 0.863 | 0.861 | 0.772 | 1 | 0.453 | 0.838 | 0.404 | 0.993 | 0.392
2 | Cc1cc2ncnn2cc1Nc1ncc2c(n1)n(C1CCOCC1)c(=O)n2C [AZD7648] + C=CCn1c(=O)c2cnc(Nc3ccc(N4CCN(C)CC4)cc3)nc2n1-c1cccc(C(C)(C)O)n1 [AZD1775] (first compound max 10 µM, partner max 1 µM) | 0.431 | 0.466 | 0.332 | 0.704 | 0.898 | 0.318 | 0.749 | 0.731 | 0.635 | 0.68 | 0.209 | 0.783 | 0.825 | 0.815 | 0.508 | 0.848 | 0.187 | 0.781 | 0.293
3 | Cc1cc2ncnn2cc1Nc1ncc2c(n1)n(C1CCOCC1)c(=O)n2C [AZD7648] + C[C@@H]1COCCN1C2=NC(=NC(=C2)C3(CC3)[S@](=N)(=O)C)C4=C5C=CNC5=NC=C4 [AZD6738] (first compound max 10 µM, 7x7, partner max 10 µM) | 0.628 | 0.295 | 0.564 | 0.912 | 0.937 | 0.283 | 0.782 | 0.718 | 0.666 | 0.726 | 0.293 | 0.889 | 0.861 | 0.857 | 0.419 | 0.863 | 0.0981 | 0.951 | 0.353
4 | COc1cccc(OCCCN)c1-c1cc(Nc2cnc(C#N)cn2)n[nH]1 [Prexasertib] + C[C@@H]1COCCN1C2=NC(=NC(=C2)C3(CC3)[S@](=N)(=O)C)C4=C5C=CNC5=NC=C4 [AZD6738] (first compound max 1 µM, 7x7, partner max 10 µM) | 0.818 | 0.461 | 0.632 | 0.957 | 0.984 | 0.506 | 0.836 | 0.718 | 0.716 | 0.826 | 0.626 | 0.913 | 0.977 | 1 | 0.437 | 0.925 | 0.398 | 1 | 0.433
5 | COc1cccc(OCCCN)c1-c1cc(Nc2cnc(C#N)cn2)n[nH]1 [Prexasertib] + O=C(c1cc(Cc2n[nH]c(=O)c3ccccc23)ccc1F)N1CCN(C(=O)C2CC2)CC1 [Olaparib] (first compound max 1 µM, 7x7, partner max 10 µM) | 0.75 | 0.573 | 0.698 | 0.974 | 0.982 | 0.405 | 0.886 | 0.668 | 0.689 | 0.811 | 0.603 | 0.858 | 0.952 | 1 | 0.431 | 0.893 | 0.289 | 0.976 | 0.464
6 | COc1cccc2c1C(=O)c1c(O)c3c(c(O)c1C2=O)C[C@@](O)(C(=O)CO)C[C@@H]3O[C@H]1C[C@H](N)[C@H](O)[C@H](C)O1 [Doxorubicin] + Cc1cc2ncnn2cc1Nc1ncc2c(n1)n(C1CCOCC1)c(=O)n2C [AZD7648] (first compound max 1 µM, 7x7, partner max 10 µM) | 0.678 | 0.782 | 0.745 | 0.957 | 1 | 0.664 | 0.814 | 0.726 | 0.554 | 0.552 | 0.496 | 0.816 | 0.203 | 0.978 | 0.6 | 0.944 | 0.513 | 1 | 0.411
7 | COc1cccc(OCCCN)c1-c1cc(Nc2cnc(C#N)cn2)n[nH]1 [Prexasertib] + CN(C)CCCOc1ccc(-c2ccc3ncc4c(c3c2)n(C2CCOCC2)c(=O)n4C)cn1 [AZD0156] (first compound max 1 µM, 7x7, partner max 1 µM) | 0.844 | 0.445 | 0.452 | 0.953 | 0.978 | 0.528 | 0.865 | 0.706 | 0.796 | 0.815 | 0.545 | 0.908 | 0.963 | 1 | 0.471 | 0.918 | 0.441 | 0.963 | 0.46
